Measurements from patent publication US20220168198A1, “AN ANTIMICROBIAL MIXTURE” (SYMRISE AG, priority 2019, published 2022).

Experiments:
S. aureus = experiment: MIC determination (agar dilution or broth microdilution), activity against S. aureus; format: cell-based; parameters: unit not given beside the values; settings: Comparison: MIC values for the actives taken alone
Description: (§1) Synergistic activity of mixtures of 4-Isopropyl-3-methylphenol an alpha bisabolol with regard to S. aureus and S. epidermidis was determined. […]
(§2) Antimicrobial activity was evaluated by determining the Minimum Inhibitory Concentration (MIC) representing the lowest concentration of a chemical which prevents visible growth of a bacterium.
(§3) The MIC values were determined by preparing solutions of the chemical in vitro at increasing concentrations, incubating the solutions with the separate batches of cultured bacteria, and measuring the results using agar dilution or broth microdilution. Results have been graded into susceptible (often called sensitive), intermediate, or resistant to a particular antibiotic by using a cutoff point. Cut off points are agreed upon values, published in guidelines of a reference body, such as the U.S. Clinical and Laboratory Standards Institute (CLSI), the British Society for Antimicrobial Chemotherapy (BSAC) or the European Committee on Antimicrobial Susceptibility Testing (EUCAST).

S. epidermitis = experiment: MIC determination (agar dilution or broth microdilution), activity against S. epidermitis; format: cell-based; parameters: unit not given beside the values; settings: Comparison: MIC values for the actives taken alone
Description: as §1, §2, §3

[1] = system: mold growth on moist alfalfa hay; settings: moist alfalfa hay preservation, Agronomy Journal 47, 64-69, 1955; cited from earlier work

| MIC (S. aureus) | MIC (S. epidermitis) | SMILES | prevention of mold growth [1] |
| --- | --- | --- | --- |
| 125 | 125 | CC(C)=CCC[C@](C)(O)[C@@H]1CC=C(C)CC1 [alpha-Bisabolol] | – |
| 250 | 250 | Cc1cc(O)ccc1C(C)C [4-Isopropyl-3-methylphenol] | – |
| – | – | CC(=O)c1ccc(O)cc1 [4-hydroxyacetophenone] | not prevent mold growth |
